In one data set the test system is RSV. SR-A strain. In words: Focus formation by RSV in primary chicken embryo fibroblasts. The class given is cell-based. The note with it: Rous sarcoma virus, Fibroblast, 192 h, number of foci, 8 days, read-out: IC₅₀. The procedure: A 24-well microplate was charged with 3.5 x 10⁵ cells per well of primary chicken embryo fibroblasts, and the fibroblasts were cultured at 37°C in an atmospher of 5% CO₂ for 6 hours. Then an RSV. SR-A strain having an infection multiplicity (M.O.I.) of about 2.0 x 10⁻⁴ and the test substance were added, and culturing was continued for further 2 hours. The cells were washed and the test substance and an agar culture medium were added, and then culturing was continued at 37°C in an atmospher of 5% CO₂ for further 8 days. The number of foci was counted, and the results are shown as IC₅₀ in Table 6.

The test system of a further data set is HTLV-1. Nature of the data set: HTLV-1 production by MT-2 cells (RNA hybridization with 32P-labelled HTLV-1 cDNA). The class given is cell-based. The note with it: 4 days, compared with control. On the procedure: The test substance and 1 x 10⁵ cells per well of MT-2 cells were charged in a 24-well microplate, and culturing was conducted for 4 days. Then the MT-2 cell suspension in each well was subjected to centrifugal separation, and the supernatant was extracted with phenol to obtain RNA of HTLV-1. This RNA and a known amount of HTLV-1 cDNA were plotted on a nitrocellulose paper, a comparative determination was carried out according to the hybridization using ³²P-labelled HTLV-1 cDNA, and the hydridization rate by the test substance was calculated by comparing the amount of the produced virus with that of the control.
The results are shown as the hybridization rate (%) in Table 7.

The conditions of data set [1]: intravenous administration; species not given; cited from earlier work.
The test system of data set [2] is male rats of the Wistar line. Nature of the data set: Acute toxicity by oral administration, rats. The class given is in vivo. The note with it: dose of 1 g/kg.
A further data set deals with Reverse transcriptase. In words: Inhibition of reverse transcriptase activity ([3H]dTTP incorporation into acid-insoluble fraction).
The test system of data set [3] is male mice of the ddY line. In words: Acute toxicity by oral administration, mice. The class given is in vivo. The note with it: dose of 1 g/kg.
Another data set has as its system HIV. Nature of the data set: Inhibition of modification of HIV-infected MT-2 cells (living cell count after 1 week). The class given is cell-based. The note with it: 5 µg/ml added; MT-2 cells infected with HIV; living cells counted after 1 week. The procedure: MT-2 cells were cultured at a concentration of 3 x 10⁴ cells/ml in a culture medium of RPMI 1640 (supplied by Gibco Co.) containing 10% FCS (supplied by Gibco Co.). After 2 days, the MT-2 cells were infected with HIV at a ratio of 200 cells per HIV, were distributed into groups to which 5 µg/ml of baicalein, quercetin or hesperetin was added and non-added groups (control groups), and the effect of the addition was determined.

≈ marks a conversion by molar mass, not a printed value.

Protocol for Reverse transcriptase: OF TOKYO PRESS TOKYO/KARGER, BASEL, pp. 603-605 (1975)], and then a reaction mixture liquid having the following composition was prepared.
By "1 unit" is meant the unit of the relative activity of the reverse transcriptase required to consume 1 nmol of dNTP (deoxynucleic acid phosphate at 37°C for 1 hour.
Then the dry extract powder obtained in the above-mentioned Specific Example, baicalein, baicalin, quercetin or hesperetin and refined water were added to 20 ml of the above-mentioned reaction mixture liquid so that the total volume was 50 µl, the incorporation of the radioactivity of [³H]dTTP into the acid-insoluble fraction was measured by a Beckmann scintillation counter, and the percent inhibition was calculated as the reverse transcriptase activity with respect to each concentration.

In the case of `O=C1c2ccccc2C(=O)c2c1cc(S(=O)(=O)O)c(O)c2O` [Alizarine Red S], the IC50 with RSV. SR-A strain stood at 2.1 µg/mL (≈ 6.56 µM). In addition, in the data set on HTLV-1 (Amount Added 20 µg/ml), the “Hybridization Rate (%)” value was 61.7%. In data set [1], the LD₅₀ was 70 mg/kg.
Turning to `O=C(O)CN(CC(=O)O)Cc1cc2c(c(O)c1O)C(=O)c1ccccc1C2=O` [alizarin complexon], the IC50 in the data set with RSV. SR-A strain turned out to be 4.3 µg/mL.
Turning to `O=C1c2ccccc2C(=O)c2c1ccc(O)c2O` [alizarin, 1,2-dihydroxyanthraquinone], the LD₅₀ in data set [1] was 120 mg/kg.
Consider `O=c1cc(-c2ccccc2)oc2cc(O)c(O)c(O)c12` [baicalein], for which the “acute toxicity (death)” value in data set [2] and in data set [3] was “no animal died” in each case. Moreover, the “Percent inhibition (%)” value stood at 29% in the data set with Reverse transcriptase (concentration 0.1 µg/ml); 35% in the data set with Reverse transcriptase (concentration 0.2 µg/ml); 74% in the data set on Reverse transcriptase (concentration 0.5 µg/ml); 92% in the data set on Reverse transcriptase (concentration 1 µg/ml); 98% with Reverse transcriptase (concentration 2 µg/ml); 100% in the data set on Reverse transcriptase (concentration 5 µg/ml). Besides, the “Percent inhibition (%)” value with Reverse transcriptase (concentration 10 µg/ml) and in the data set on Reverse transcriptase (concentration 20 µg/ml) was 100% each time. In addition, in the data set on HIV, the “modification of MT-2 cells with HIV was inhibited at a ratio” value is “at least 90%”.
Regarding `O=C(O)[C@H]1O[C@@H](Oc2cc3oc(-c4ccccc4)cc(=O)c3c(O)c2O)[C@H](O)[C@@H](O)[C@@H]1O` [baicalin], the “acute toxicity (death)” value in data set [2] and in data set [3] was “no animal died” each time. For the same molecule, the “Percent inhibition (%)” value in the data set on Reverse transcriptase (concentration 1 µg/ml) was 19%; in the data set with Reverse transcriptase (concentration 2 µg/ml), 27%; with Reverse transcriptase (concentration 5 µg/ml), 73%; with Reverse transcriptase (concentration 10 µg/ml) it was 90%; in the data set with Reverse transcriptase (concentration 20 µg/ml), 100%.
Consider `COc1ccc([C@@H]2CC(=O)c3c(O)cc(O)cc3O2)cc1O` [hesperetin], for which the “acute toxicity (death)” value in data set [2] and in data set [3] was “no animal died” throughout. The “Percent inhibition (%)” value in the data set with Reverse transcriptase (concentration 1 µg/ml) turned out to be 99%; with Reverse transcriptase (concentration 2 µg/ml), 100%; in the data set on Reverse transcriptase (concentration 5 µg/ml) it was 100%; in the data set with Reverse transcriptase (concentration 10 µg/ml), 100%; in the data set on Reverse transcriptase (concentration 20 µg/ml), 100%; in the data set with Reverse transcriptase (concentration 50 µg/ml) it was 100%. For the same molecule, in the data set with HIV, the “modification of MT-2 cells with HIV was inhibited at a ratio” value was “at least 90%”.
On to `O=C1c2ccccc2C(=O)c2c(O)c(O)cc(O)c21` [purpurin], for which the “Hybridization Rate (%)” value in the data set with HTLV-1 (Amount Added 5 µg/ml) was determined as 61.3%.
On to `O=c1c(O)c(-c2ccc(O)c(O)c2)oc2cc(O)cc(O)c12` [quercetin], for which the “acute toxicity (death)” value in data set [2] and in data set [3] was “no animal died” each time. Further, the “Percent inhibition (%)” value in the data set with Reverse transcriptase (concentration 1 µg/ml) was determined as 77%; with Reverse transcriptase (concentration 2 µg/ml) it was 96%; in the data set on Reverse transcriptase (concentration 5 µg/ml), 99%; in the data set with Reverse transcriptase (concentration 10 µg/ml), 100%; in the data set on Reverse transcriptase (concentration 20 µg/ml), 100%; with Reverse transcriptase (concentration 50 µg/ml), 100%. In addition, in the data set on HIV, the “modification of MT-2 cells with HIV was inhibited at a ratio” value was “at least 90%”.

Values taken from patent EP0348509B1, “ANTI-RETROVIRAL DRUG” (TSUMURA & CO., priority 1987, dated 1989).
